Measurements as given in article PMC5518866 (British Journal of Cancer, 2017).
Where two headings read alike, the source gives them in different places.

Legend:
advanced malignancies = conditions: phase I, cited from earlier work
[1] = test system: proliferating cell nuclear antigen (PCNA); experiment: PCNA RNA expression in whole blood; type: in vivo, human; conditions: for Difference of mean ΔCT values from baseline (ΔΔCT), PCNA: 6 h post dose, whole blood
human cancer cell lines = conditions: large panel of human cancer cell lines; ref Siemeister et al, 2012; cited from earlier work
[2] = test system: patients with advanced malignancies; experiment: Tumour response; type: in vivo, human; conditions: 10 patients
[3] = test system: patients with advanced malignancies; experiment: Tumour response; type: in vivo, human
xenograft mouse models = conditions: ref Siemeister et al, 2012; cited from earlier work
[4] = test system: cell-cycle CDKs 1, 2, 4, and 6 and transcriptional CDKs 7 and 9; conditions: cited from earlier work
[5] = test system: previously treated patients with SCLC; conditions: phase II, ref Stephenson et al, 2014; cited from earlier work
[6] = 104 patients with solid tumours
[7] = seven patients, lymphoid malignancy dose-escalation cohorts

**Q.** With `CC(=O)c1c(C)c2cnc(Nc3ccc(N4CCNCC4)cn3)nc2n(C2CCCC2)c1=O` [palbociclib] as the compound, how does the “Disease control rate (DCR)” value (advanced malignancies; ref Flaherty et al, 2012) read?
**A.** 27%

**Q.** What does the source list for roniciclib?
**A.** PCNA expression in peripheral whole blood (fold-change from baseline) ([1]; 6 h post dose on cycle 1, day 1, ovarian cancer and SCLC patients): significantly inhibited expression of PCNA; Difference of mean ΔCT values from baseline (ΔΔCT), PCNA ([1]; Ovarian cancer cohort, Cycle 1, day 1): 1.720; Difference of mean ΔCT values from baseline (ΔΔCT), PCNA ([1]; Ovarian cancer cohort, Cycle 1, day 10): 0.521; Difference of mean ΔCT values from baseline (ΔΔCT), PCNA ([1]; SCLC cohort, Cycle 1, day 1): 1.006; Difference of mean ΔCT values from baseline (ΔΔCT), PCNA ([1]; SCLC cohort, Cycle 1, day 10): 0.224; Anti-proliferative activity (human cancer cell lines): broad-spectrum anti-proliferative activity; Complete or partial response [2]: No patients; Stable disease, patients [2]: five; Disease control rate (DCR) ([3]; 5 mg BID, solid tumours bearing a CDK-related tumour mutation (n=6)): 33.3%; Complete response [3, 6]: none; Disease control rate (DCR) [3, 6]: 32.7%; Partial response [3, 6]: 1.0%; Radiological progressive disease [3, 6]: 38.5%; Response rate [3, 6]: 1.0%; Stable disease [3, 6]: 31.7%; Disease control rate (DCR) ([3]; lymphoid malignancy dose-escalation cohorts): 42.9%; Complete or partial response [3, 7]: none; Stable disease, patients [3, 7]: three; Tumour growth inhibition (xenograft mouse models): strongly inhibited tumour growth in a dose-dependent manner; Activity against CDKs [4]: low nanomolar activity

**Q.** For `CCc1cnn2c(NCc3ccc[n+]([O-])c3)cc(N3CCCC[C@H]3CCO)nc12` [dinaciclib], which “Disease control rate (DCR)” value (advanced malignancies; ref Nemunaitis et al, 2013) is on record?
**A.** 20.8%

**Q.** And the Objective responses [5]?
**A.** no objective responses
